Data on 2 compounds can be found in US11766472B2, “Method of treatment for hair loss” (priority 2021, dated 2023).

The subject of series [1] is hair loss (men Norwood Hamilton grade III to grade V; women Ludwig grade II and III). Kind of series: Controlled clinical trial: minoxidil and finasteride in men, minoxidil alone in women, versus nutrient treatment regimen (Example 1). To be noted: human, in vivo.
Method: (§1) This controlled clinical trial compares the current treatment for hair loss within two controlled groups for both men and women against the use of one embodiment of the nutritional therapy regimen described herein. One hundred patients in each of the 4 groups, a total of 400 patients, were followed for 1 year. The progress was evaluated every 2 months with computerized measurements of hair density, hair caliber, global photography and uniquely designed self-assessment scores.
(§2) Group 3 TM: Treatment group for 100 men (TM) and
(§3) Group 4 TW: treatment group for 100 women (TW)
(§4) Treatment groups for both men and women followed the same protocol.
For series [2] the test system is unchanged. As to conditions: human, in vivo.
Method: as §1, §2, §3, §4
A further series deals with hair loss. To be noted: cited from earlier work.

Each structure is given as a SMILES string. Like-named read-outs stand apart in the source and are kept apart here.

Regarding `Nc1cc(N2CCCCC2)nc(N)[n+]1[O-]` [minoxidil], in series [1], the “Side effects observed with the control group” value is “scalp irritation, dryness, itching, and frizzy hair”. Besides, the “Duration for which patients complained of hair loss (initial shedding)” value in series [2] was 8-10 weeks.

Regarding `CC(C)(C)NC(=O)[C@H]1CC[C@H]2[C@@H]3CC[C@H]4NC(=O)C=C[C@]4(C)[C@H]3CC[C@]12C` [finasteride], the “Patients having deteriorated with hair loss more than the initial status” value in the series with hair loss (after one year) is 17%. In the series on hair loss (end of 1 year), the Improvement is 48-59% and the Non-responders is 41-52%. For the same compound, the “Side effects observed with the control group” value in series [2] is recorded as “Loss of libido was reported by a few patients”.
